Test results reported in paper PMC4840416, “Constructing and Validating High-Performance MIEC-SVM Models in Virtual Screening for Kinases: A Better Way for Actives Discovery” (Scientific Reports, 2016).
pIC50: −log10 of the molar value.

These compounds were tested against T1, recombinant human ALK protein (Homo sapiens, UniProt Q9UM73) (assay: LanthaScreen TR-FRET in vitro inhibitory activity assay of ALK). Conditions: TR-FRET, 5 μM ATP, 1 hour at room temperature.
T1 construct: purchased Life Technologies Inc. PV3867
Assay type: biochemical
Method: All reagents and anhydrous solvents were obtained from commercial sources and used as received. The positive control inhibitors of ALK, crizotinib and ceritinib, were purchased from Bangshunda Technology and Selleck Chemicals, respectively. The compounds were dissolved in 100% dimethyl sulfoxide (DMSO) as a 10 mM stock solution. The final DMSO concentration in each reaction was less than 1%. Purified recombinant human ALK protein (Catalog number: PV3867) as well as reagents for TR-FRET assay, including Lantha Screen™ Tb-PY20 (Catalog number: PV3552), Fluorescein-Poly GT (Catalog number: PV3610), ATP (Catalog number: PV3227), Kinase Quench Buffer (Catalog number: P2832), Kinase Buffer (Catalog number: PV3189), and Antibody Dilution Buffer (Catalog number: PV3574), were all obtained from Life Technologies Inc.
Lantha Screen™ kinase assay based on TR-FRET technology was used to measure the inhibitory activity of the screened compounds. All the assays were carried out in 384-well plate format. The 4 × test compounds were firstly prepared before the enzyme reaction starts. The 4 × recombinant human ALK protein and 2 × Substrate/ATP mixture were separately prepared in 50 mM HEPES (pH = 7.5), 0.01% BRIJ-35, 10 mM MgCl2, 4 mM MnCl2, 1 mM EGTA, and 2 mM DTT. The final 10 μL kinase reaction consists of 5 μL 1 × Substrate/ATP mixture (0.2 μM substrate and 5 μM ATP), 2.5 μL ALK (5 ng/ml ALK protein), and 2.5 μL 1 × test compounds with desired concentration. The assay plate was shook on a plate shaker for 30 seconds to mix the reactions thoroughly. After 1 hour kinase reaction incubation at room temperature (20 ~ 25 °C), 10 μL of pre-prepared 20 mM EDTA and 4 nM Tb-labeled antibody solution was then added to terminate the kinase reactions and to initiate antibody binding, and the assay plate was incubated for another 1 hour at room temperature. Then, the assay plate was placed into a fluorescence plate reader (BioTek Synergy™ 4) to measure both fluoresce in and terbium emission signals (excitation: 340 nm; emission: 520 and 495 nm, respectively) with 100 μs delay time and 200 μs integration time. To determine the IC50 values, the resulted inhibitory activity calculated from TR-FRET emission ratio (i.e. fluoresce in emission intensity/terbium emission intensity) was plotted against the concentration of inhibitor, and the data was fitted to a dose-response curve with a variable slop.

T1 sequence (Q9UM73 1058-1620 limits assumed): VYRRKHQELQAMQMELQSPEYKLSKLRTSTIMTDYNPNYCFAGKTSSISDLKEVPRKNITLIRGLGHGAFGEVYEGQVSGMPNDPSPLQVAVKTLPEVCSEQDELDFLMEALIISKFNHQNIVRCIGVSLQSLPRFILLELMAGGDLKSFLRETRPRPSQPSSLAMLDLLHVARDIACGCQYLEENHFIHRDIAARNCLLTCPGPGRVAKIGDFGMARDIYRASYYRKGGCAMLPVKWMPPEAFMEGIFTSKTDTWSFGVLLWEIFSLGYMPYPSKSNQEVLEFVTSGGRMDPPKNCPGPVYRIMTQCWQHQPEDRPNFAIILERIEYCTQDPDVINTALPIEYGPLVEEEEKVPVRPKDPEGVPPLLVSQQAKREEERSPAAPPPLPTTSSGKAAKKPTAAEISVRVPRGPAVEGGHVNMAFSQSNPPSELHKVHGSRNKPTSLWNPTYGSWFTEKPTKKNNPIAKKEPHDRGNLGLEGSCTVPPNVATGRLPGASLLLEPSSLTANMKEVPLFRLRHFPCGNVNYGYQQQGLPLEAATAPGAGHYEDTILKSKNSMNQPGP

SMILES	pIC50
O=C(c1cc(C(=O)N2CCN(c3ccccc3)CC2)cc(C(=O)N2CCN(c3ccccc3)CC2)c1)N1CCN(c2ccccc2)CC1 [Compound A1]	6.24
COc1cc(/C=C2/C(=N)N3N=C(c4ccccc4Cl)SC3=NC2=O)ccc1O [Compound M4]	6.06
Cc1cccc2cc3c(nc12)N(C(=O)c1ccc(S(=O)(=O)N2CCCCC2)cc1)CC3 [Compound M8]	4.94
CN1C(=O)c2cccc3c(S(=O)(=O)Nc4nc[nH]n4)ccc1c23 [Compound M6]	5.35
CCN1C(=O)c2cccc3c(S(=O)(=O)Nc4nc5ccccc5s4)ccc1c23 [Compound M7]	5.22

Same assay, conditions: compound at 2ug/ml

SMILES	Averaged Enzymatic Inhibition @ 2ug/ml (%)
COc1ccc(-n2c(-c3ccc(-c4ccccc4)cc3)nnc2-c2cccc3ccccc23)cc1 [AE-848/32007021]	5.085
OC(CON=C1c2ccccc2-c2ccccc21)CN1CCN(c2ccc(Cl)cc2)CC1 (centres unmarked) [AS-871/42941985]	-10.47
COc1ccccc1C(=O)Nc1ccc2oc(-c3cccc4c(Br)cccc34)nc2c1 [AK-968/12097078]	-2.025
c1ccc2cc3c(ccc4ccc5cc6c(ccc7ccccc76)cc5c43)cc2c1 [AB-131/42301451]	28.575
c1ccc(-c2cc(-c3c(-c4ccccc4)cn4c3sc3ccccc34)c(-c3ccccc3)nn2)cc1 [AQ-344/43100304]	-14.115
C(=C(\Cn1nc(-c2ccccc2)c(-c2ccccc2)c1-c1ccccc1)c1ccccc1)/c1ccccc1 [AK-830/13217169]	2.08
Cc1cc(C)c2c(c1)c(-c1ccccc1)c(-c1ccccc1)n2CC(O)CN1CCC(C)CC1 (centres unmarked) [AF-399/15128132]	-9.645
Cc1ccc(-n2cnc3c(sc4nnc(-c5ccccc5)c(-c5ccccc5)c43)c2=O)cc1 [AN-789/13819006]	1.595
COc1ccc(-c2cc(C(=O)Nc3ccccc3-c3ccccc3)c3ccccc3n2)cc1 [AG-690/40749597]	2.49
c1ccc(-c2oc3ncn4nc(CSc5nc6ccccc6s5)nc4c3c2-c2ccccc2)cc1 [AG-690/12869680]	-1.245
Cc1ccc(NC(=O)c2sc3nc(N)c(C#N)c(-c4ccc(C(C)C)cc4)c3c2N)cc1Cl [AE-848/15116611]	10.08
CCOc1cc(/C=C2/SC(=O)N(Cc3c(F)cccc3Cl)C2=O)ccc1O [AM-879/41780072]	12.385
Cc1cccn2c(=O)c3cc(C(=O)NC(C)c4ccccc4)c(=N)n(CCc4ccccc4)c3nc12 (centres unmarked) [AS-871/41399397]	-8.995
CC(C)(C)c1ccc(Oc2cc(Nc3ccccc3)c3c4c(onc24)-c2ccccc2C3=O)cc1 [AG-690/40097127]	11.435
CN1CCc2nc3sc(C(=O)c4ccc(-c5ccccc5)cc4)c(N)c3c(-c3cccs3)c2C1 [AM-807/14959628]	-12.705
COc1cccc(-c2cc3c(c(N)c2C#N)c(=O)oc2ccccc23)c1 [AO-476/43362608]	9.055
Cc1nc(Nc2nc(CSc3nnnn3-c3ccccc3)cc(=O)[nH]2)nc2ccccc12 [AJ-292/42284747]	1.31
Cc1ccc(-c2cc(-c3ccccc3Cl)c3c(N)c(-c4nnc(-c5ccccc5)o4)sc3n2)cc1 [AG-690/40749514]	-4.41
Cc1onc(-c2ccccc2)c1C(=O)Nc1cccc2c1C(=O)c1ccccc1C2=O [AK-968/13025057]	30.35
Cc1ccc(-c2cc(C(=O)N3CCN(C/C=C/c4ccccc4)CC3)c3ccccc3n2)cc1C [AK-968/11842315]	10.91
CC(NS(=O)(=O)c1cccc(Cl)c1)C(=O)Nc1cccc(-c2nc3ccccc3s2)c1 (centres unmarked) [AQ-750/42209760]	13.425
Cc1ccc(-c2csc(N3N=C(c4ccc5c(c4)CCCC5)CC3c3ccccc3)n2)cc1 (centres unmarked) [AL-182/40744490]	-4.165
Cc1cccc2cc3c(nc12)N(C(=O)c1ccc(S(=O)(=O)N2CCCCC2)cc1)CC3 [Compound M8]	48.88
Nc1cc(NC(=O)c2cn(-c3ccccc3)nc2-c2ccccc2)cc(Oc2ccccc2)c1 [AG-205/33688061]	14.9
COc1ccc(Cl)cc1C(=O)NCCNc1ccc(-n2nc(C)cc2C)nn1 [AQ-432/43400100]	-6.36

SMILES	Averaged Enzymatic Inhibition @ 2ug/ml (%)
O=C1c2cccc3c2C2=S(Sc4ccc(NC5CCCCC5)c1c42)N3C1CCCCC1 (centres unmarked) [AH-541/12737056]	12.4
O=C1/C(=C/c2ccc(-c3cccc(Cl)c3)o2)CCC/C1=C\c1ccc(-c2cccc(Cl)c2)o1 [AA-504/07472022]	40.455
O=C1c2ccc(-c3nc4ccccc4s3)cc2C(=O)N1c1cccc(-c2nc3ccccc3s2)c1 [AN-979/41713847]	5.385
Cc1ccc(OS(=O)(=O)c2cccc(C(=O)Nc3ccccc3)c2)c(-n2nc3ccccc3n2)c1 [AG-690/11836103]	-16.78
Cc1ccc(C(=O)COC(=O)c2ccc3nc4c5ccccc5c5ccccc5c4nc3c2)cc1C [AK-918/13399094]	8.005
COc1cc(/C=N/n2c(-c3ccccc3)n[nH]c2=S)cc(OC)c1O [AG-205/36915079]	18.19
CCCOc1ccc(-c2cc(C(=O)N3CCC(Cc4ccccc4)CC3)c3ccccc3n2)cc1 [AK-968/15360205]	-17.96
CCCCC1CCC(c2nc3c4c(c(Nc5cccc(C)c5)ccc4n2)C(=O)c2ccccc2-3)CC1 (centres unmarked) [AH-034/08463011]	1.2
Cc1ccc(C2C(C(=O)c3cc4ccccc4o3)=C(O)C(=O)N2c2nc3c(C)cc(C)cc3s2)cc1 (centres unmarked) [AF-399/42017504]	-5.97
N#CC1=C(N)Oc2n[nH]c(-c3ccccc3)c2C1c1cccc(OCc2cccc3ccccc23)c1 (centres unmarked) [AP-964/41446891]	13.75
O=C1c2ccccc2-c2c1c(-c1cccc(Oc3ccccc3)c1)nc1ccc3ccccc3c21 [AG-690/12869023]	12.235
CCn1cc(/C=C2\C(=O)NC(=S)N(c3cccc4ccccc34)C2=O)c2ccccc21 [AN-465/14954307]	46.45
CC(C)c1ccc(-c2c(C#N)c(N)nc3sc(C(=O)Nc4ccc(Cl)cc4)c(N)c23)cc1 [AE-848/15116593]	-8.375
CCc1ccc(-n2c(CSc3nnnn3-c3ccccc3)nc3ccccc3c2=O)cc1 [AG-205/37086057]	40.815
O=C1c2ccccc2-c2onc3c(Sc4ccccc4)cc(Sc4ccccc4)c1c23 [AG-690/40097114]	1.725
Cc1ccnc(NC(=O)c2ccc(Cl)c(NC(=O)c3ccc(-c4ccccc4)cc3)c2)c1 [AN-652/43161615]	17.89
O=C(Nc1ccc(Cl)cc1)C1CC(=O)N(c2ccc(Oc3ccccc3)cc2)C1 (centres unmarked) [AO-081/15572353]	-3.26
O=C(Cn1cc(/C=C2\SC(=NC3CCCC3)N(C3CCCC3)C2=O)c2ccccc21)N1CCOCC1 [AO-081/15386972]	-1.4
O=C1C2=C(NC3=C(C(=O)c4ccccc43)C23C(=O)c2cccc4cccc3c24)c2ccccc21 [AE-848/15341192]	13.145
O=C(Nc1cccc(S(=O)(=O)N2CCN(C(=O)c3ccccc3)CC2)c1)C1CCCCC1 [AO-080/43378230]	-9.72
O=C(COC(=O)c1c(-c2ccccc2)c(-c2ccccc2)nc2ccccc12)c1ccccc1 [AK-918/15391011]	-13.24
Cc1ccc(-c2ccc(/C=C3/SC(N4CCN(c5cccc(C)c5)CC4)=NC3=O)o2)cc1 [AF-399/40881300]	13.735
Cc1cc(C)c2oc(-c3ccc(C)c(NS(=O)(=O)c4cc([N+](=O)[O-])ccc4Cl)c3)nc2c1 [AG-690/08629011]	26.47
O=C(Nc1ccccc1)c1c(-c2ccccc2)c(C(=O)c2ccc([N+](=O)[O-])cc2)n2ccccc12 [AI-204/31728031]	3.565
CCC(Oc1ccc2ccccc2c1Br)C(=O)NNC(=O)c1cc2cc(Br)ccc2oc1=O (centres unmarked) [AK-968/37077046]	3.24

Same assay, conditions: compound at 2ug/ml, read-out: Averaged Enzymatic Inhibition @ 2ug/ml (%)

SMILES	inhibition at 2 µg/mL [%]
O=C(c1cc(C(=O)N2CCN(c3ccccc3)CC2)cc(C(=O)N2CCN(c3ccccc3)CC2)c1)N1CCN(c2ccccc2)CC1 [Compound A1]	80.6
COc1cc(/C=C2/C(=N)N3N=C(c4ccccc4Cl)SC3=NC2=O)ccc1O [Compound M4]	70.5
CN1C(=O)c2cccc3c(S(=O)(=O)Nc4nc[nH]n4)ccc1c23 [Compound M6]	53.3
CCN1C(=O)c2cccc3c(S(=O)(=O)Nc4nc5ccccc5s4)ccc1c23 [Compound M7]	50.8
